Patent US20260137706A1, “METHODS OF TREATING INFLAMMATORY DISEASES” (INTERLINE THERAPEUTICS, INC., priority 2023, published 2026)

What was measured:
[1] = tested on: NF-κB pathway (SEAP) in THP1-Dual cells; test: THP-1 Dual cell SEAP assay (L18-MDP stimulated); type: cell-based; conditions: Homo sapiens, THP1-Dual, read-out: NF-κB THP1 IC50 bin
Procedure, shortened: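 IC50 values derive from non-linear regression of % inhibition, calculated against DMSO/L18-MDP-treated wells after media-only subtraction. NF-κB SEAP activity was read at OD 620-655 nm (QUANTI-Blue, 2 h, 37 °C) from supernatants of THP1-Dual cells. Cells had been compound-treated 30 min before overnight (20-24 h) stimulation with 10 ng/mL final L18-MDP.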

[2] = target: T1, GST-RIPK2 fusion protein (human RIPK2, amino acids 1-310) (Homo sapiens, UniProt O43353); test: RIPK2 binding competition assay (TR-FRET, Tracer 199 displacement); conditions: 10 nM Tracer 199, 1 nM GST-RIPK2, read-out: RIPK2 IC50
T1 construct: made in house; host or cells: baculovirus infected Sf9 cells
T1 sequence (O43353 1-310): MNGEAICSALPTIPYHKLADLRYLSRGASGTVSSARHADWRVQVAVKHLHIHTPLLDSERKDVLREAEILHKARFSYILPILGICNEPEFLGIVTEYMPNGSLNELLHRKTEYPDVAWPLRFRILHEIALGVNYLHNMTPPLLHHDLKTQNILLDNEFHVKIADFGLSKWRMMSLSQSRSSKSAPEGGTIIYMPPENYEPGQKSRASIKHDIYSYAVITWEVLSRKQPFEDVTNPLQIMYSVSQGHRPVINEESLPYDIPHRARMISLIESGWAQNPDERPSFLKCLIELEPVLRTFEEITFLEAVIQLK
Excerpt: The ability of selected compounds of Formula (I) to inhibit the binding of an Alexa647-labelled ATP-competitive kinase inhibitor to a GST-RIPK2 fusion protein was quantified employing the TR-FRET-based RIPK2 binding competition assay as described in the following paragraphs.
Recombinant fusion protein of N-terminal Glutathione-S-Transferase (GST) and a fragment of human RIPK2 (amino acids 1-310 of accession number 043353), expressed in baculovirus infected Sf9 cells, purified via glutathione affinity chromatography, was used as GST-RIPK2 fusion protein. Tracer 199 from Life Technologies (catalogue no. PR9115B) was used as Alexa647-labelled ATP-competitive kinase inhibitor.
For the assay, 50 nL of a 100-fold concentrated solution of each test compound in DMSO was pipetted into either a black low volume 384-well microtiter plate or a black 1536-well microtiter plate (both Greiner Bio-One, Frickenhausen, Germany), 3 μL solution of Tracer 199 (16.7 nM=>final concentration in 5 μL assay volume is 10 nM) in aqueous assay buffer (25 mM Tris/HCl pH 7.5, 10 mM magnesium chloride (MgCl2), 5 mM β-glycerophosphate, 2.5 mM dithiothreitol (DTT), 0.5 mM ethylene glycol-bis(2-aminoethylether)-N,N,N′,N′-tetraacetic acid (EGTA), 0.5 mM sodium ortho-vanadate, 0.01% (w/v) bovine serum albumin (BSA), 0.005% (w/v) Pluronic F-127 (Sigma)) were added. Then the binding competition was started by the addition of 2 μL of a solution of the GST-RIPK2 fusion protein (2.5 nM=>final conc. in the 5 μL assay volume is 1 nM) and of Anti-GST-Tb (1.25 nM=>final conc. in the 5 μL assay volume is 0.5 nM), a Lumi4®—Tb cryptate-conjugated anti-GST antibody from PerkinElmer (catalogue no 61GSTTAH), in assay buffer.
The resulting mixture was incubated 45 min at 22° C. to allow the formation of a complex between the Tracer 199, the fusion protein and Anti-GST-Tb. Subsequently, the amount of this complex was evaluated by measurement of the resonance energy transfer from the Tb-cryptate to the Tracer 199. Therefore, the fluorescence emissions at 620 nm and 665 nm after excitation at 337 nm were measured in a TR-FRET reader, e.g. a Pherastar FS (BMG Labtechnologies, Offenburg, Germany) or a Viewlux (PerkinElmer). The ratio of the emissions at 665 nm and at 620 nm was taken as the measure of the amount of the complex. The data were normalized (assay reaction without inhibitor=0% activity, all other assay components but no GST-RIPK2 fusion protein=−100% activity).
Table A1 below lists IC50 values of selected compounds of Formula (I) measured in the RIPK2 binding competition assay.

[3] = target: T2, binding of His-XIAP(BIR2)-avi fusion protein to GST-RIPK2 fusion protein (RIPK2/XIAP) (Homo sapiens, UniProt O43353); test: RIPK2-XIAP binding competition PPI assay (TR-FRET); conditions: RIPK2/XIAP binding competition PPI assay; for Emax: Amax, read-out: PPI Amax bin; for IC50: read-out: PPI IC50 bin
T2 construct: made in house; host or cells: baculovirus infected Sf9 cells
T2 sequence (O43353 1-310 limits assumed): as the sequence (O43353 1-310) above
Procedure, shortened: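 Compounds (in DMSO, 100-fold stock) incubated 120 min at 23 °C with 1 nM GST-RIPK2 (aa 1-310) and 25 nM His-XIAP(BIR2 aa 152-231)-avi, plus anti-His-XL665 and anti-GST-Tb, in pH 7.5 Tris buffer. Read-out: 665/520 nm emission ratio. Normalized to no-inhibitor (0%) and 50 nM GSK583 (−100%); Amax binned A–D.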

Compound	IC50 [1] [µM]	IC50 [2] [µM]	Emax [3] [%]	IC50 [3] [µM]
COc1cc2ncc(-c3ccc4nc(N)[nH]c4c3)n2cc1S(=O)(=O)C(C)(C)C [Example 98, 6-(6-(tert-butylsulfonyl)-7-methoxyimidazo[1,2-a]pyridin-3-yl)-1H-benzo[d]imidazol-2-amine]	> 1	0.0025 to 0.02	< 30	> 0.02
COc1cc2ncc(-c3cc(F)c(OC)c(NS(=O)(=O)c4cnn(CCO)c4)c3)n2cc1S(=O)(=O)C(C)(C)C [Example 227, N-(5-(6-(tert-butylsulfonyl)-7-methoxyimidazo[1,2-a]pyridin-3-yl)-3-fluoro-2-methoxyphenyl)-1-(2-hydroxyethyl)-1H-pyrazole-4-sulfonamide]	< 0.05	0.001 to 0.0025	> 80	< 0.001
COc1cc2ncc(-c3ccc(N)nc3F)n2cc1S(=O)(=O)C(C)(C)CO [Example 58, 2-((3-(6-amino-2-fluoropyridin-3-yl)-7-methoxyimidazo[1,2-a]pyridin-6-yl)sulfonyl)-2-methylpropan-1-ol]	> 1	> 0.02	> 80	> 0.02
CC(C)(C)S(=O)(=O)c1cn2c(-c3cc(F)c(N)nc3F)cnc2cc1OCC(O)CO (centres unmarked) [Example 55, 3-((3-(6-amino-2,5-difluoropyridin-3-yl)-6-(tert-butylsulfonyl)imidazo[1,2-a]pyridin-7-yl)oxy)propane-1,2-diol]	0.25 to 1	0.0025 to 0.02	> 80	0.0025 to 0.02
CN(C)CCOc1cc2ncc(-c3cc(F)c(N)nc3F)n2cc1S(=O)(=O)C(C)(C)C [Example 20, 5-(6-(tert-butylsulfonyl)-7-(2-(dimethylamino)ethoxy)imidazo[1,2-a]pyridin-3-yl)-3,6-difluoropyridin-2-amine]	> 1	0.0025 to 0.02	> 80	> 0.02
CC(C)(C)S(=O)(=O)c1cc2c(-c3cc(F)c(N)nc3F)cnn2cc1OCCO [Example 14, 2-((3-(6-amino-2,5-difluoropyridin-3-yl)-5-(tert-butylsulfonyl)pyrazolo[1,5-a]pyridin-6-yl)oxy)ethan-1-ol]	0.05 to 0.25	0.001 to 0.0025	> 80	0.001 to 0.0025
CC(C)(C)S(=O)(=O)c1cn2c(-c3cc(Cl)c(N)nc3F)cnc2cc1CCCO [Example 257, 3-(3-(6-amino-5-chloro-2-fluoropyridin-3-yl)-6-(tert-butylsulfonyl)imidazo [1,2-a]pyridin-7-yl)propan-1-ol]	0.25 to 1	0.0025 to 0.02	> 80	0.0025 to 0.02
OCCCNc1cc(-c2cnc3ccc(C(F)(F)F)cn23)cc(F)n1 [Example 5, 3-((6-fluoro-4-(6-(trifluoromethyl)imidazo[1,2-a]pyridin-3-yl)pyridin-2-yl)amino)propan-1-ol]	0.25 to 1	> 0.02	< 30	> 0.02
CC(C)(C)S(=O)(=O)c1cn2c(-c3cc(F)c(N)nc3F)cnc2cc1OCCN1CCNCC1 [Example 21, 5-(6-(tert-butylsulfonyl)-7-(2-(piperazin-1-yl)ethoxy)imidazo[1,2-a]pyridin-3-yl)-3,6-difluoropyridin-2-amine]	> 1	0.001 to 0.0025	> 80	0.0025 to 0.02
COc1cc2ncc(-c3cc(F)c(N)nc3F)n2cc1C1(OC)CCOCC1 [Example 76, 3,6-difluoro-5-(7-methoxy-6-(4-methoxytetrahydro-2H-pyran-4-yl)imidazo[1,2-a]pyridin-3-yl)pyridin-2-amine]	> 1	> 0.02	> 80	> 0.02
COc1cc2ncc(-c3cc(C)c4nn(C)cc4c3)n2cc1S(=O)(=O)C(C)(C)C [Example 97, 5-(6-(tert-butylsulfonyl)-7-methoxyimidazo[1,2-a]pyridin-3-yl)-2,7-dimethyl-2H-indazole]	> 1	0.0025 to 0.02	< 30	> 0.02
CC(C)(C)S(=O)(=O)c1cn2c(-c3cnc4[nH]nnc4c3)cnc2cc1OCCO [Example 231, 2-((3-(3H-[1,2,3]triazolo[4,5-b]pyridin-6-yl)-6-(tert-butylsulfonyl)imidazo [1,2-a]pyridin-7-yl)oxy)ethan-1-ol]	> 1	> 0.02	30 to 55	> 0.02
COc1cc2ncc(-c3cnc4cc(N)ccc4c3)n2cc1S(=O)(=O)C(C)(C)C [Example 92, 3-(6-(tert-butylsulfonyl)-7-methoxyimidazo[1,2-a]pyridin-3-yl)quinolin-7-amine]	> 1	> 0.02	30 to 55	> 0.02
CC(C)(O)COc1cc2ncc(-c3cc(F)c(N)nc3F)n2cc1S(=O)(=O)C(C)(C)C [Example 28, 1-((3-(6-amino-2,5-difluoropyridin-3-yl)-6-(tert-butylsulfonyl)imidazo[1,2-a]pyridin-7-yl)oxy)-2-methylpropan-2-ol]	0.05 to 0.25	0.001 to 0.0025	> 80	0.0025 to 0.02
CC(C)(N)COc1cc2ncc(-c3cc(Cl)c(N)nc3F)n2cc1S(=O)(=O)C(C)(C)C [Example 241, 5-(7-(2-amino-2-methylpropoxy)-6-(tert-butylsulfonyl)imidazo [1,2-a]pyridin-3-yl)-3-chloro-6-fluoropyridin-2-amine]	0.25 to 1	0.0025 to 0.02	> 80	0.0025 to 0.02
CC(C)(C)S(=O)(=O)c1cc2c(-c3cc(Cl)c(N)nc3F)cnn2cc1OCC(O)CO (centres unmarked) [Example 247, 3-((3-(6-amino-5-chloro-2-fluoropyridin-3-yl)-5-(tert-butylsulfonyl)pyrazolo [1,5-a]pyridin-6-yl)oxy)propane-1,2-diol]	0.05 to 0.25	0.001 to 0.0025	> 80	0.001 to 0.0025
COc1cc2ncc(-c3cc(F)c(N)nc3F)n2cc1S(=O)(=O)C(C)(C)CO [Example 60, 2-((3-(6-amino-2,5-difluoropyridin-3-yl)-7-methoxyimidazo[1,2-a]pyridin-6-yl)sulfonyl)-2-methylpropan-1-ol]	0.25 to 1	0.0025 to 0.02	> 80	0.0025 to 0.02
COc1cc2ncc(-c3cc(F)c(N)nc3F)n2cc1P1(=O)CCN(C)CC1 [Example 79, 4-(3-(6-amino-2,5-difluoropyridin-3-yl)-7-methoxyimidazo[1,2-a]pyridin-6-yl)-1-methyl-1,4-azaphosphinane 4-oxide]	> 1	> 0.02	> 80	> 0.02
Cn1ccc(-c2cc3ncc(-c4cc(F)c(N)nc4F)n3cc2S(=O)(=O)C(C)(C)C)n1 [Example 27, 5-(6-(tert-butylsulfonyl)-7-(1-methyl-1H-pyrazol-3-yl)imidazo[1,2-a]pyridin-3-yl)-3,6-difluoropyridin-2-amine]	> 1	> 0.02	> 80	> 0.02
CCCS(=O)(=O)Nc1cc(-c2cnc3cc(OC)c(C(=O)N4CCNCC4)cn23)cc(F)c1OC [Example 191, N-(3-fluoro-2-methoxy-5-(7-methoxy-6-(piperazine-1-carbonyl)imidazo[1,2-a]pyridin-3-yl)phenyl)propane-1-sulfonamide]	> 1	0.0025 to 0.02	> 80	0.0025 to 0.02
